From ChEMBL document CHEMBL1135389, “7-Substituted 5-amino-2-(2-furyl)pyrazolo[4,3-e]-1,2,4-triazolo[1,5-c]pyrimidines as A2A adenosine receptor antagonists: a study on the importance of modifications at the side chain on the activity and solubility” (J Med Chem, 2002)
pKi: −log10 of the molar value.

Experiments:
Adenosine receptor A3 = target: T1, Adenosine receptor A3 (Homo sapiens, UniProt P0DMS8); test: Displacement of specific [3H]MRE3008-F20 binding at human adenosine A3 receptor expressed in CHO cells.; assay type: cell-based
T1 sequence (P0DMS8 whole entry): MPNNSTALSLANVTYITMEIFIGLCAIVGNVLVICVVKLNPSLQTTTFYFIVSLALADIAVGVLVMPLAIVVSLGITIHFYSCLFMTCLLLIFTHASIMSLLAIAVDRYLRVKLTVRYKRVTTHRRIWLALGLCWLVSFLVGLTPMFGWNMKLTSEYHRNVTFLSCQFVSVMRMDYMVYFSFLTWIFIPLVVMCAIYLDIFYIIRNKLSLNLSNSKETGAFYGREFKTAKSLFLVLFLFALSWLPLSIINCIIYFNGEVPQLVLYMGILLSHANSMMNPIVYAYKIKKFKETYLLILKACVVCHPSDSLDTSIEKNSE

Adenosine receptor A2a [1] = target: T2, Adenosine receptor A2a (Homo sapiens, UniProt P29274); test: biochemical
Adenosine receptor A2b = target: T3, Adenosine receptor A2b (Homo sapiens, UniProt P29275); test: biochemical
T3 sequence (P29275 whole entry): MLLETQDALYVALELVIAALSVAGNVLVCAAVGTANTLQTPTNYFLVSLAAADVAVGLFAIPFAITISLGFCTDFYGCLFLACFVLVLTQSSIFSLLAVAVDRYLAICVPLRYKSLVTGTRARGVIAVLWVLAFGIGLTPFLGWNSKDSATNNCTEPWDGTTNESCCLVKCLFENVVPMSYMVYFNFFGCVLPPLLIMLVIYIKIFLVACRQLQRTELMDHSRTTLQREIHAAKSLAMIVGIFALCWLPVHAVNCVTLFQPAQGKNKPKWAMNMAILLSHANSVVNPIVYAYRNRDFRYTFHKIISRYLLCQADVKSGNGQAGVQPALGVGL
Description: Displacement of specific [3H]DPCPX binding at human adenosine A2B receptor expressed in HEK293 cells.

Adenosine receptor A1 [2] = target: T4, Adenosine receptor A1 (Homo sapiens, UniProt P30542); test: biochemical
T4 sequence (P30542 whole entry): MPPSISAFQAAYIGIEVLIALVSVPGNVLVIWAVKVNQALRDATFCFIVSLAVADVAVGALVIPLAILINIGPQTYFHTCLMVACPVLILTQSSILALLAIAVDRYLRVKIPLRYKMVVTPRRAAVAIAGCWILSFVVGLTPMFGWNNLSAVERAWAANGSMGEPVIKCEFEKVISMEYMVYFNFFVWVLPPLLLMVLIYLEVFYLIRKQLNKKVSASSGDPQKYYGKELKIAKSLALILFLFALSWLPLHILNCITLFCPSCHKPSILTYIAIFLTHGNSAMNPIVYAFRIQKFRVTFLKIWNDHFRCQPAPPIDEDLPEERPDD
Description: Displacement of specific [3H]DPCPX binding at human Adenosine A1 receptor expressed in CHO cells.

Adenosine receptor A1 [3] = target: T4, Adenosine receptor A1; test: Displacement of [3H]DPCPX from human Adenosine A1 receptor expressed in CHO cells; ranges from 3420-3788; assay type: cell-based
Adenosine receptor A2a [4] = target: T2, Adenosine receptor A2a; test: Displacement of [3H]-SCH- 58261 binding at human Adenosine A2A receptor expressed in HEK293 cells; ranges from 49-72; assay type: cell-based
Adenosine receptor A2a [5] = target: T2, Adenosine receptor A2a; test: Displacement of [3H]-SCH- 58261 binding at human Adenosine A2A receptor expressed in HEK293 cells; ranges from 0.69-0.92; assay type: cell-based
Adenosine receptor A1 [6] = target: T4, Adenosine receptor A1; test: Displacement of [3H]-DPCPX from human Adenosine A1 receptor expressed in CHO cells; ranges from 2153-2891; assay type: cell-based
Adenosine receptor A2a [7] = target: T2, Adenosine receptor A2a; test: Displacement of [3H]-SCH- 58261 binding at human Adenosine A2A receptor expressed in HEK293 cells; ranges from 48.9-52.4; assay type: cell-based
Adenosine receptor A1 [8] = target: T4, Adenosine receptor A1; test: Displacement of [3H]DPCPX binding at human Adenosine A1 receptor expressed in CHO cells; ranges from 8783-9911; assay type: cell-based
Adenosine receptor A2a [9] = target: T2, Adenosine receptor A2a; test: Displacement of [3H]-SCH- 58261 binding at human Adenosine A2A receptor expressed in HEK293 cells; ranges from 66-85; assay type: cell-based
Adenosine receptor A1 [10] = target: T4, Adenosine receptor A1; test: Displacement of [3H]DPCPX binding at human Adenosine A1 receptor expressed in CHO cells; ranges from 5697-7171; assay type: cell-based

T2 sequence (P29274 whole entry): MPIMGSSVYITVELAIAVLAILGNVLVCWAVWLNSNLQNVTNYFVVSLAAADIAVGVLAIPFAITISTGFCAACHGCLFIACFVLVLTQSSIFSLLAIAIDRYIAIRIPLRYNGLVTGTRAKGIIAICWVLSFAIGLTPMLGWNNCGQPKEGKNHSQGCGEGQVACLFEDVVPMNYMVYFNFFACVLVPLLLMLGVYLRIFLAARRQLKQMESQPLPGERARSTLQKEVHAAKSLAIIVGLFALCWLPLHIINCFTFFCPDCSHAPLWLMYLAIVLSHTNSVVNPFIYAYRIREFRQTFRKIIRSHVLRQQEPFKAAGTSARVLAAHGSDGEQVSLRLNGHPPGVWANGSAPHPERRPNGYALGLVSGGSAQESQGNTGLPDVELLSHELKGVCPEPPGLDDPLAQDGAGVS

N/C(=N\O)c1ccc(CCn2ncc3c2nc(N)n2nc(-c4ccco4)nc32)cc1
pKi (Adenosine receptor A3): < 5.00
pKi (Adenosine receptor A2a [1]): 9.74
pKi (Adenosine receptor A2b): < 5.00
pKi (Adenosine receptor A1 [2]): 6.75

N#Cc1ccc(CCCn2ncc3c2nc(N)n2nc(-c4ccco4)nc32)cc1
pKi (Adenosine receptor A3): < 5.00
pKi (Adenosine receptor A2a [1]): 7.07
pKi (Adenosine receptor A2b): < 5.00
pKi (Adenosine receptor A1 [2]): 5.19

CCOC(=O)COc1ccc(CCn2ncc3c2nc(N)n2nc(-c4ccco4)nc32)cc1
pKi (Adenosine receptor A3): < 5.00
pKi (Adenosine receptor A2a [1]): 9.37
pKi (Adenosine receptor A2b): < 5.00
pKi (Adenosine receptor A1 [2]): 5.38

Nc1nc2c(cnn2CCc2ccc(N(CCO)CCO)cc2)c2nc(-c3ccco3)nn12
pKi (Adenosine receptor A3): < 5.00
pKi (Adenosine receptor A2a [1]): 9.92
pKi (Adenosine receptor A2b): < 5.00
pKi (Adenosine receptor A1 [2]): 6.91

Nc1nc2c(cnn2CCCc2ccc([N+](=O)[O-])cc2)c2nc(-c3ccco3)nn12
pKi (Adenosine receptor A3): < 5.00
pKi (Adenosine receptor A2a [1]): 9.00
pKi (Adenosine receptor A2b): < 5.00
pKi (Adenosine receptor A1 [2]): 5.99

Nc1ccc(CCn2ncc3c2nc(N)n2nc(-c4ccco4)nc32)cc1
pKi (Adenosine receptor A3): < 5.00
pKi (Adenosine receptor A2a [1]): 9.89
pKi (Adenosine receptor A2b): < 5.00
pKi (Adenosine receptor A1 [2]): 6.24

NCc1ccc(CCCn2ncc3c2nc(N)n2nc(-c4ccco4)nc32)cc1
pKi (Adenosine receptor A3): < 5.00
pKi (Adenosine receptor A2a [1]): 8.22
pKi (Adenosine receptor A2b): < 5.00
pKi (Adenosine receptor A1 [2]): 7.22

Nc1nc2c(cnn2CCCc2ccc3c(c2)O[C@H](C(=O)O)O3)c2nc(-c3ccco3)nn12
pKi (Adenosine receptor A3): < 5.00
pKi (Adenosine receptor A1 [3]): 5.44
pKi (Adenosine receptor A2b): < 5.00
pKi (Adenosine receptor A2a [4]): 7.23

CC(=O)Nc1ccc(CCn2ncc3c2nc(N)n2nc(-c4ccco4)nc32)cc1
pKi (Adenosine receptor A3): < 5.00
pKi (Adenosine receptor A2a [1]): 8.32
pKi (Adenosine receptor A2b): < 5.00
pKi (Adenosine receptor A1 [2]): 6.38

Nc1nc2c(cnn2CCc2ccc(S(=O)(=O)N(CCO)CCO)cc2)c2nc(-c3ccco3)nn12
pKi (Adenosine receptor A3): < 5.00
pKi (Adenosine receptor A2a [5]): 9.10
pKi (Adenosine receptor A1 [6]): 5.60
pKi (Adenosine receptor A2b): < 5.00

N/C(=N/O)c1ccc(CCCn2ncc3c2nc(N)n2nc(-c4ccco4)nc32)cc1
pKi (Adenosine receptor A3): < 5.00
pKi (Adenosine receptor A2a [1]): 8.22
pKi (Adenosine receptor A2b): < 5.00
pKi (Adenosine receptor A1 [2]): 7.22

Nc1nc2c(cnn2CCc2ccc(S(=O)(=O)NCC(=O)O)cc2)c2nc(-c3ccco3)nn12
pKi (Adenosine receptor A2a [7]): 7.30
pKi (Adenosine receptor A3): < 5.00
pKi (Adenosine receptor A2b): < 5.00
pKi (Adenosine receptor A1 [8]): 5.03

Nc1nc2c(cnn2CCc2ccc(S(=O)(=O)O)cc2)c2nc(-c3ccco3)nn12
pKi (Adenosine receptor A3): < 5.00
pKi (Adenosine receptor A2a [1]): 7.00
pKi (Adenosine receptor A2b): < 5.00
pKi (Adenosine receptor A1 [2]): 6.72

Nc1nc2c(cnn2CCCc2cc3c(cc2S(=O)(=O)O)OCO3)c2nc(-c3ccco3)nn12
pKi (Adenosine receptor A3): < 5.00
pKi (Adenosine receptor A2a [9]): 7.12
pKi (Adenosine receptor A1 [10]): 5.19
pKi (Adenosine receptor A2b): < 5.00
